Measurements: US20230131025A1, “QUINOLYL PHOSPHINE OXIDE COMPOUND, AND COMPOSITION AND APPLICATION THEREOF” (Betta Pharmaceuticals Co., Ltd., priority 2020, published 2023)

Legend:
[1] = target: EGFR WT (Homo sapiens, UniProt P00533); assay: Kinase inhibition assay (mobility shift); format: biochemical
Procedure: (§1) Experiment 1 Kinase Inhibition Assay Mobility shift assays were performed to determine inhibitory activity of compounds against EGFR^Δ19del/T790M/C797S, EGFR WT and IGF1R kinases. The enzymatic reaction scheme is as follows:
(§2) 1. Preparing 1*Kinase Buffer as follows:
(§3) 2. Preparing compound concentration gradient: the initial concentration of the compound tested in the assay was 3,000 nM or 100 nM, which is then diluted to be 100-fold final concentration in 100% DMSO in a 384-source plate. Compounds in 10 concentrations were diluted in a 3-fold gradient with Precision. 250 nL of compound in 100-fold final concentration was transferred to OptiPlate-384F plate by using a dispenser named Echo 550.
(§4) 3. Preparing kinase solution at 2.5-fold the final concentration with 1×kinase buffer.
(§5) 4. Adding 10 μL of kinase solution at 2.5-fold the final concentration to compound wells and positive control wells respectively; and adding 10 μL of 1×kinase buffer to negative control wells.
(§6) 5. Centrifuging the wells at 1,000 rpm for 30 seconds, mixing the reaction plate well by shaking and incubating it at room temperature for 10 minutes.
(§7) 6. Preparing a mixed solution of ATP and kinase substrate at 5-fold/3-fold the final concentration with 1×Kinase buffer, respectively.
(§8) 7. Initiating the reaction by adding 15 μL of the mixed solution of ATP and kinase substrate at 5-fold/3-fold the final concentration.
(§9) 8. Centrifuging the 384-well plate at 1,000 rpm for 30 seconds, mixing the reaction plate well by shaking and incubating it at room temperature for a corresponding time.
(§10) 9. Adding 30 μL of assay stop solution to stop the kinase reaction, and centrifuging the plate at 1,000 rpm for 30 seconds and mixing it well by shaking.
(§11) 10. Reading the conversion rate with Caliper EZ Reader.
(§12) [formula] • wherein, “Conversion % sample” is the conversion rate reading of the sample;
(§13) “Conversion %_min” is the mean value of the negative control wells, representing the conversion rate readings of the well without enzymatic activity; “Conversion %_max” is the mean value of the positive control wells, representing the conversion rate readings of the wells without compound inhibition. • Dose-response curve is plotted with the logarithmic concentration on the X-axis and percent inhibition on the Y-axis. The fitting of the dose-response curve is made with the module “log(inhibitor) vs. response—Variable slope” of the analysis software GraphPad Prism 5, so that the IC50 value of each compound on enzymatic activity is obtained. • The calculation formula is: Y=Bottom+(Top−Bottom)/(1+10^((Log IC50−X)*HillSlope)).

[2] = target: EGFR Δ19del/T790M/C797S (Homo sapiens, UniProt P00533, T790M/C797S, form not given); assay: Kinase inhibition assay (mobility shift); format: biochemical
Procedure: as §1, §2, §3, §4, §5, §6, §7, §8, §9, §10, §11, §12, §13

[3] = target: IGF1R (Homo sapiens, UniProt P08069); assay: Kinase inhibition assay (mobility shift); format: biochemical
Procedure: as §1, §2, §3, §4, §5, §6, §7, §8, §9, §10, §11, §12, §13

[4] = target: Ba/F3 EGFR WT (Homo sapiens, UniProt P00533); assay: Cell proliferation experiment (CellTiter Glo, 72 hours); format: cell-based; conditions: read-out: BaF3 EGFR WT IC50
Procedure: (§14) Experiment 2 Cell Proliferation Experiment
(§15) Suspension cells: Ba/F3 cells with stable overexpression of Δ19del/T790M/C797S mutant gene, named Ba/F3-Δ19del/T790M/C797S; Ba/F3 cells with overexpression of EGFR WT, named Ba/F3 EGFR WT.
(§16) RPMI 1640 with 10% FBS and 1% Penicillin-Streptomycin, or DMEM with 10% FBS and 1% Penicillin-Streptomycin.
(§17) a) Diluting compounds being tested (20 mM stock solutions), as an initial concentration, to 10 mM with 100% DMSO, followed by diluting compounds serially in a 3-fold gradient such that each compound is diluted into 12 concentrations (Cat #P-05525, Labcyte).
(§18) b) Diluting the above compound solutions for 100-fold with culture medium to prepare 10-fold working solution.
(§19) b) Seeding cells into 96-well cell culture plate at a density of 2000 or 3000 cells/well, with 135 μL/well.
(§20) a) Adding the compound prepared in step 2 to the cell plate at 15 μL per well, resulting in a final maximum concentration of 10000 nM or 1111 nM. The compounds is diluted serially in a 3-fold gradient such that each compound is diluted into 9 concentrations, wherein the final concentration of DMSO is 0.1%. Blank control wells are added with medium (0.1% DMSO).
(§21) b) Re-incubating the cells in an incubator for 72 hours. 5. Detection
(§22) a) Adding 50 μL of CTG reagent (CellTiter Glo kit, promega, Cat #G7573) to the 96-well cell culture plate.
(§23) b) Shaking the plate for 2 minutes and reacting at room temperature for 10 minutes.
(§24) c) Reading the luminescence signal value (Lum) using PerkinElmer reader.
(§25) The cell survival inhibition rate of each well was calculated. The data was analyzed by GraphPad Prism 6.0 software. The dose-response curve was obtained by fitting the data with a nonlinear regression equation. The IC50 of each compound was calculated as follows:
(§26) Cell survival inhibition rate (%)=(1−(Lumcompound tested−Lummedium control)/(Lumcell control−Lummedium control))×100%
(§27) Y=Min+(Max−Min)/(1+10^((Log IC50−X)*Slope));
(§28) X: logarithm of compound concentration. Y: cell survival inhibition rate.

[5] = target: Ba/F3-Δ19del/T790M/C797S (Homo sapiens, UniProt P00533, T790M/C797S, cells depend on it, form not given); assay: as above; format: cell-based; conditions: read-out: Ba/F3/EGFR Δ19del/T790M/C797S IC50
Procedure: as §14, §15, §16, §17, §18, §19, §20, §21, §22, §23, §24, §25, §26, §27, §28

[6] = system: human epidermal cancer cells A431 carrying EGFR WT; assay: as above; format: cell-based; conditions: Homo sapiens, A-431
Procedure: as §14
Adherent cells: human epidermal cancer cells A431 carrying EGFR WT.
as §16, §17, §18, §19, §20, §21, §22, §23, §24, §25, §26, §27, §28

Sequence of Ba/F3 EGFR WT (P00533 whole entry, change not shown): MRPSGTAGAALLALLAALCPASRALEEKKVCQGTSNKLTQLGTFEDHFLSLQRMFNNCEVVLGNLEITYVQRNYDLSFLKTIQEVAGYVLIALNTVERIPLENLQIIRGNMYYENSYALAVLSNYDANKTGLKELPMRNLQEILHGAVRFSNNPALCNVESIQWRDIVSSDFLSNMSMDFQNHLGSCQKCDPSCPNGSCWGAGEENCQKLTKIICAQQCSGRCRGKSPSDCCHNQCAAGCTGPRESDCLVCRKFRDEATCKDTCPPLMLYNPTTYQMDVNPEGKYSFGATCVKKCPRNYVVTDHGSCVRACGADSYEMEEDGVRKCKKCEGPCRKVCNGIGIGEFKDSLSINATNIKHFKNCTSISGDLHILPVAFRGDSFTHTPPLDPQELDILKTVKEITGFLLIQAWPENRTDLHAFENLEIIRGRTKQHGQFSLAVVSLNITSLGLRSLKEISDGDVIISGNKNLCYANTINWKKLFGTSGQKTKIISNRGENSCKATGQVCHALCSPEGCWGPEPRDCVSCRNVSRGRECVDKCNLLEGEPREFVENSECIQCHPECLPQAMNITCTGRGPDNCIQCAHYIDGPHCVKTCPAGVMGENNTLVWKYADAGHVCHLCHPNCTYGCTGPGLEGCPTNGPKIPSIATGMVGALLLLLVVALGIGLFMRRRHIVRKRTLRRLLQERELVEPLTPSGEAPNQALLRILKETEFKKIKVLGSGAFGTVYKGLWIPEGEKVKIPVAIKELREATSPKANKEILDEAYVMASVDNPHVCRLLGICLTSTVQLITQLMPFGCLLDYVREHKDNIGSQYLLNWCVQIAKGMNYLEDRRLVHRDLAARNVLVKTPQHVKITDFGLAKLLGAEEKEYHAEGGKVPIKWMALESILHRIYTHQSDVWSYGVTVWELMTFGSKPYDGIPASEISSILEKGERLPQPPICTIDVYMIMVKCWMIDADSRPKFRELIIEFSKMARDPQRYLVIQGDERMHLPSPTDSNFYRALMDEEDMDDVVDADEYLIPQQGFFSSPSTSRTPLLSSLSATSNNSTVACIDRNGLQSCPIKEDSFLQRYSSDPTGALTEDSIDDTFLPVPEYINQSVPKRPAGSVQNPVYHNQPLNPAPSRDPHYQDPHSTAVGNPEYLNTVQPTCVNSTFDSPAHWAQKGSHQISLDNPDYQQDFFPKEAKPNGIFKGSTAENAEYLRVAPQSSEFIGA
Sequence of EGFR Δ19del/T790M/C797S (P00533 with tags, fused parts or gaps DEL746-750/T790M/C797S, form open): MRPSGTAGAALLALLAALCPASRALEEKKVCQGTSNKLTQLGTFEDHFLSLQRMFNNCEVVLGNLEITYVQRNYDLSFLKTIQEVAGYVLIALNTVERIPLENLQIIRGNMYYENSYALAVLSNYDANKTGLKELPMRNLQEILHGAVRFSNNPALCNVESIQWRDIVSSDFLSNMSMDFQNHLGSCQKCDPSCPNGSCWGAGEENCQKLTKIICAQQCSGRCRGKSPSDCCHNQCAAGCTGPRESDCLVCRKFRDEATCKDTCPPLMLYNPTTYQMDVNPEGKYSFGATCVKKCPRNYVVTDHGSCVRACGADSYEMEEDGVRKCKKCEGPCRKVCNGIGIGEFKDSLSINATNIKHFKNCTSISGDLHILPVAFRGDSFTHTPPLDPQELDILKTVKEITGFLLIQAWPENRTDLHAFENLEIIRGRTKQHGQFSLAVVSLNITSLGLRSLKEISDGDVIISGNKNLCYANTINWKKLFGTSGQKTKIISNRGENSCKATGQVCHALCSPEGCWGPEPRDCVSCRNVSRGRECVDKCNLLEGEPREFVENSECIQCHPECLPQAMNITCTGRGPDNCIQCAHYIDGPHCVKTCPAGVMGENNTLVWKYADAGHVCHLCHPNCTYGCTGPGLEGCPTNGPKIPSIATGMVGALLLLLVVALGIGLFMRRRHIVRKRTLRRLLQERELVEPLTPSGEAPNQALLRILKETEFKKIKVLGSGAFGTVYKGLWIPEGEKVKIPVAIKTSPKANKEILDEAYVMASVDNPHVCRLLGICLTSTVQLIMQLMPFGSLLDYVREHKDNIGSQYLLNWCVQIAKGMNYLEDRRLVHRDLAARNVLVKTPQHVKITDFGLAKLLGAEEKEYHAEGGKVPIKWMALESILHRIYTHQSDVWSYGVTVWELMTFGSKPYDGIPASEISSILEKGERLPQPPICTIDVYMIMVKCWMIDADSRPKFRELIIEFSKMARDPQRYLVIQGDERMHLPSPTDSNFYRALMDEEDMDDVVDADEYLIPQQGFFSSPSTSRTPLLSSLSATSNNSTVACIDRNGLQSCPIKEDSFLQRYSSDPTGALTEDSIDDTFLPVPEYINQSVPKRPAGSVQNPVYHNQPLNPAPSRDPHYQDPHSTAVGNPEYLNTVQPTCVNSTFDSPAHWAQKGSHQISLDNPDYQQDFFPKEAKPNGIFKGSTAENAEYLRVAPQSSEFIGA
Sequence of Ba/F3-Δ19del/T790M/C797S (P00533 with tags, fused parts or gaps DEL746-750/T790M/C797S, form open): as above
Sequence of IGF1R (P08069 31-1367, species assumed): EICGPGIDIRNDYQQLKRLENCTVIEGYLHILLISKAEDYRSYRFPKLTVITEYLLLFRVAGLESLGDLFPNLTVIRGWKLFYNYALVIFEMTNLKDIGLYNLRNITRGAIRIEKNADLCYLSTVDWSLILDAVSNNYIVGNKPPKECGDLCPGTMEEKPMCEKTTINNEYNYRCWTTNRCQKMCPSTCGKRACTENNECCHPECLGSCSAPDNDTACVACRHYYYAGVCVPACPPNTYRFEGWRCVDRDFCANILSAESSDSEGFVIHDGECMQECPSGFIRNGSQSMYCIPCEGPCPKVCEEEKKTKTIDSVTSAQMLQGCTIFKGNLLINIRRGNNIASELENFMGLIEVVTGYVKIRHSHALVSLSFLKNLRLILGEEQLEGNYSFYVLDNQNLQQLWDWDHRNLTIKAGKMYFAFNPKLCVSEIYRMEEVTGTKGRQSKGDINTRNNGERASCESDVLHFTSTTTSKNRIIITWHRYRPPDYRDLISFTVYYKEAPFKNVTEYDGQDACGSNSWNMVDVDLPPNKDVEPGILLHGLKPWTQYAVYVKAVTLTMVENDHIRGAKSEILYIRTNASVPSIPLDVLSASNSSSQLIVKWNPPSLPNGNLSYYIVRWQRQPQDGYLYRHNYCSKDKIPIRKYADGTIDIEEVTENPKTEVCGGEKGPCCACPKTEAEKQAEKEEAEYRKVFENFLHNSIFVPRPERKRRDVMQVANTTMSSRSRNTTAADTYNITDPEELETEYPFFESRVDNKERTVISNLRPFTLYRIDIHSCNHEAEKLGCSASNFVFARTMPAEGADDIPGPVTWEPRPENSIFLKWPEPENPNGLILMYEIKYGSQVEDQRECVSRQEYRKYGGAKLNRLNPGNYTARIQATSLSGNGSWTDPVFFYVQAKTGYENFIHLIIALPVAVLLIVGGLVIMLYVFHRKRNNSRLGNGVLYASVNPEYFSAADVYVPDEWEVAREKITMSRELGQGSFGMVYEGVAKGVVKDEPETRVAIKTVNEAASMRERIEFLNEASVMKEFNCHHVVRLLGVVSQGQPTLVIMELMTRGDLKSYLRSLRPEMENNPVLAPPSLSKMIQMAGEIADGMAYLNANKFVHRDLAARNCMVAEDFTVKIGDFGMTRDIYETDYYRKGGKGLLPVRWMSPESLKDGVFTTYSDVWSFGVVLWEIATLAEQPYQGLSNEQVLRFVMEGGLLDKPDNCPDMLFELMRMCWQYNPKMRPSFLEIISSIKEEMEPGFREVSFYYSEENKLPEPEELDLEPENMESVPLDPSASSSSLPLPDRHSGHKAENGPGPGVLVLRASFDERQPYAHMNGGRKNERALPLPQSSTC

IC50 [1]	IC50 [2]	IC50 [3]	GI50 [4]	GI50 [5]	IC50 [6]	SMILES
62.8 nM	0.4 nM	720 nM				COc1cc(N2CCOCC2)c(C#N)cc1Nc1ncc(Br)c(Nc2ccc3nc(C4CC4)ccc3c2P(C)(C)=O)n1 [Compound J-002, 5-((5-Bromo-4-((2-cyclopropyl-5-(dimethylphosphineoxide)quinolin-6-yl)amino)pyrimidin-2-yl)amino)-4-methoxy-2-morpholinebenzonitrile]
283 nM	0.7 nM	380 nM				COc1cc(Nc2ncc(Br)c(Nc3ccc4nc(C5CC5)ccc4c3P(C)(C)=O)n2)c(C2CC2)cc1N1CCOCC1 [Compound J-004, (6-((5-Bromo-2-((2-cyclopropyl-5-methoxy-4-morpholinylphenyl)amino)pyrimidin-4-yl)amino)-2-cyclopropylquinoline-5-yl)dimethylphosphine oxide]
714 nM	3.5 nM	437 nM				COc1cc(Nc2ncc(Br)c(Nc3ccc4nc(C5CC5)ccc4c3P(C)(C)=O)n2)cc(C)c1N1CCOCC1 [Compound J-006, (6-((5-Bromo-2-((3-methoxy-5-methyl-4-morpholinylphenyl)amino)pyrimidin-4-yl)amino)-2-cyclopropylquinoline-5-yl)dimethylphosphine oxide]
18.4 nM	0.3 nM	246 nM				CCc1cc(Nc2ncc(Br)c(Nc3ccc4nc(-c5cnn(C)c5)ccc4c3P(C)(C)=O)n2)c(OC)cc1N1CCC(N2CCN(C)CC2)CC1 [Compound J-017, (6-((5-Bromo-2-((5-ethyl-2-methoxy-4-(4-(4-methylpiperazin-1-yl)piperidin-1-yl)phenyl)amino)pyrimidin-4-yl)amino)-2(1-methyl-1H-pyrazol-4-yl)quinolin-5-yl)dimethylphosphine oxide]
16 nM	0.33 nM	222 nM				COc1cc(N2CCC(N3CCN(C)CC3)CC2)c(F)cc1Nc1ncc(Br)c(Nc2ccc3nc(C4CC4)ccc3c2P(C)(C)=O)n1 [Compound J-019, (6-((5-Bromo-2-((5-fluoro-2-methoxy-4-(4-(4-methylpiperazin-1-yl)piperidin-1-yl)phenyl)amino)pyrimidin-4-yl)amino)-2-cyclopropylquinolin-5-yl)dimethylphosphine oxide]
2310 nM	43 nM	> 3000 nM				COc1cc(Nc2ncc(Br)c(Nc3ccc4nc(C5CC5)ccc4c3P(C)(C)=O)n2)c(C#N)cc1N1CCC(N2CCN(C)CC2)CC1 [Compound J-025, 2-((5-Bromo-4-((2-cyclopropyl-5-(dimethylphosphineoxide)quinolin-6-yl)amino)pyrimidin-2-yl)amino)-4-methoxy-5-(4-(4-methylpiperazin-1-yl)piperidin-1-yl)benzonitrile]
> 3000 nM	36 nM	> 3000 nM				COc1cc(Nc2ncc(Br)c(Nc3ccc4nc(C5CC5)ccc4c3P(C)(C)=O)n2)c(C2CCOCC2)cc1N1CCC(N2CCN(C)CC2)CC1 [Compound J-026, (6-((5-Bromo-2-((5-methoxy-4-(4-(4-methylpiperazin-1-yl)piperidin-1-yl)-2-(tetrahydro-2H-pyran-4-yl)phenyl)amino)pyrimidin-4-yl)amino)-2-cyclopropylquinolin-5-yl)dimethylphosphine oxide]
138 nM		210 nM				COc1cc(N2CCN(C3CCCC3)CC2)c(C)cc1Nc1ncc(Br)c(Nc2ccc3nc(C4CC4)ccc3c2P(C)(C)=O)n1 [Compound J-037, (6-((5-Bromo-2-((4-(4-cyclopentylpiperazin-1-yl)-2-methoxy-5-methylphenyl)amino)pyrimidin-4-yl)amino)-2-cyclopropylquinolin-5-yl)dimethylphosphine oxide]
			46.2 nM	1.4 nM	157 nM	COc1cc(N(C)CCN(C)C)c(-c2cnn(C)c2)cc1Nc1ncc(Br)c(Nc2ccc3nc(C4CC4)ccc3c2P(C)(C)=O)n1 [Compound J-062, (6-((5-Bromo-2-((4-((2-(dimethylamino)ethyl)(methyl)amino)-2-methoxy-5-(1-methyl-1H-pyrazol-4-yl)phenyl)amino)pyrimidin-4-yl)amino)-2-cyclopropylquinolin-5-yl)dimethylphosphine oxide]
			14.6 nM	1.1 nM	128 nM	COc1cc(N2CCC(N3CCN(C)CC3)CC2)c(-c2ccn(C)c2)cc1Nc1ncc(Br)c(Nc2ccc3nc(C4CC4)ccc3c2P(C)(C)=O)n1 [Compound J-064, (6-((5-Bromo-2-((2-methoxy-5-(1-methyl-1H-pyrrol-3-yl)-4-(4-(4-methylpiperazine-1-yl)piperidin-1-yl)phenyl)amino)pyrimidin-4-yl)amino)-2-cyclopropylquinolin-5-yl)dimethylphosphine oxide]
			73 nM	13 nM	425 nM	COc1cc(N2CCC(N3CCN(C)CC3)CC2)c(-c2cnn(C)c2)cc1Nc1ncc(F)c(Nc2ccc3nc(C4CC4)ccc3c2P(C)(C)=O)n1 [Compound J-065]
			77.9 nM	4.4 nM	259 nM	COc1cc(N2CCN(C3CCN(C)CC3)CC2)c(-c2cnn(C)c2)cc1Nc1ncc(Br)c(Nc2ccc3nc(C4CC4)ccc3c2P(C)(C)=O)n1 [Compound J-066, (6-((5-Bromo-2-((2-methoxy-5-(1-methyl-1H-pyrazol-4-yl)-4-(4-(1-methylpiperidine-4-yl)piperazin-1-yl)phenyl)amino)pyrimidin-4-yl)amino)-2-cyclopropylquinolin-5-yl)dimethylphosphine oxide]
			37.3 nM	2.4 nM	632 nM	COc1cc(N2CCC(N3CCN(C)CC3)CC2)c(-c2cnn(C(F)F)c2)cc1Nc1ncc(Br)c(Nc2ccc3nc(C4CC4)ccc3c2P(C)(C)=O)n1 [Compound J-067, (6-((5-bromo-2-((5-(1-(difluoromethyl)-1H-pyrazol-4-yl)-2-methoxy-4-(4-(4-methylpiperazin-1-yl)piperidin-1-yl)phenyl)amino)pyrimidin-4-yl)amino)-2-cyclopropylquinolin-5-yl)dimethylphosphine oxide]
			33.2 nM	1 nM	201 nM	COc1cc(N2CCC(N3CCN(C)CC3)CC2)c(-c2cnn(C)c2)cc1Nc1ncc(Br)c(Nc2ccc3nc(C4CC4)ccc3c2P(C)(C)=O)n1 [Compound J-068, (6-((5-Bromo-2-((2-methoxy-5-(1-methyl-1H-pyrazol-4-yl)-4-(4-(4-methylpiperazine-1-yl)piperidin-1-yl)phenyl)amino)pyrimidin-4-yl)amino)-2-cyclopropylquinolin-5-yl)dimethylphosphine oxide]
